Data reported in US8530454B2, “Use of 2,5-dihydroxybenzene compounds and derivatives for the treatment of psoriasis” (Amderma Pharmaceuticals, LLC, priority 2006, dated 2013).

Legend:
rat glioma C6 cells = assay: Rat glioma C6 cell proliferation, crystal violet staining; assay type: cell-based; settings: 48 h; for C6 cell proliferation (percentage of control absorbance at 595 nm): 500 μM, p<0.001 vs control (FIG. 12)
Protocol: The cell line used was rat glioma C6 cells. The cells were cultured as previously described (Cuevas P et al. Neurol Res, 2005). The cells were cultured as adherent cells in Dulbecco's modified Eagle's medium, supplemented with 7.5% (v/v) of fetal bovine serum, 10 μg/ml of streptomycin and 10 units/ml of penicillin. The tumor cells were seeded in 24-well plates at a density of 10,000 cells/well, and were incubated at 37° C. in a humidified chamber with 5% CO2. Once adhered, the cells were treated or not (controls) with 2,5-dihydroxybenzoate at 100, 200, 500 or 1000 μM and they were allowed to proliferate for 48 h. After this time the glioma cell proliferation was evaluated by means of staining the fixed cells with crystal violet. The number of cells is proportional to the amount of retained dye, which was spectrophotometrically determined by measuring the absorbance at 595 nm once the dye was extracted from the cells.
(§1) The cell line used was the C6 cell line and the experiment was carried out as described in Example 2. Once adhered, the cells were treated or not (controls) with increasing concentrations of 2,5-DHC (10, 25, 50 and 100 μM) and they were allowed to proliferate for 48 h. After this time the glioma cell proliferation was evaluated by means of staining the fixed cells with crystal violet. The number of cells is proportional to the amount of retained dye, which was determined spectrophotometrically by measuring absorbance at 595 nm once the dye was extracted from the cells.
as §1, with “examples 2 and 3.” for “Example 2.”, “(5A-2HBS) (500 μM) or (2A-5HBS) (500” for “increasing concentrations of 2,5-DHC (10, 25, 50 and 100”, “measuring the” for “measuring”

[1] = tested on: bFGF-induced fibrosis in rat adipose tissue; assay: bFGF-induced fibrosis around subcutaneously implanted gelatin sponges; assay type: in vivo, Sprague-Dawley rats; settings: 100 μM in sponge with bFGF and heparin, 7 days, vs bFGF alone
Protocol: Sterile gelatin sponges (1 mm^3; Curaspon Dental, Clinimed Holding, Zwanenburg, The Netherlands) were subcutaneously implanted in the dorsal region of the neck in Sprague-Dawley rats after the induction of intraperitoneal anesthesia. The animals were split into two groups: group A, the sponges were moistened with 200 μl of saline solution which contained 25 μg/ml of heparin and 10 μg/ml of basic FGF (bFGF); group B, the sponges were moistened in the same solution as in group A, but which solution farther contained 2,5-dihydroxybenzoate (100 μM). After 7 days, the sponges and the surrounding subcutaneous fat were removed and histologically analyzed.

[2] = tested on: mitogenesis induced by fibroblast growth factor-1 (FGF-1) in Balb/c 3T3 fibroblasts; assay: Inhibition of FGF-1-induced mitogenesis in quiescent Balb/c 3T3 fibroblasts; assay type: cell-based; settings: quiescent Balb/c 3T3 cultures; potassium salts, calcium salt for 2-acetoxy-5-hydroxybenzene sulfonate
Protocol: The evaluated compounds were used in the form of potassium salt, except in the first case which used calcium salt. The experiments were carried out as described in Fernández-Tornero C et al. J Biol Chem, 2003.

[3] = target: fibroblast growth factor-1 (FGF-1) (Homo sapiens, UniProt P05230); assay: Crystal diffraction of co-crystal complexes with FGF-1; assay type: binding; settings: electron density contoured at 1σ; for acetoxyl groups retained when bound to FGF-1: co-crystal; for binding site on FGF-1 in the co-crystal: reference lysine 132
Sequence of fibroblast growth factor-1 (FGF-1) (P05230 whole entry, species assumed): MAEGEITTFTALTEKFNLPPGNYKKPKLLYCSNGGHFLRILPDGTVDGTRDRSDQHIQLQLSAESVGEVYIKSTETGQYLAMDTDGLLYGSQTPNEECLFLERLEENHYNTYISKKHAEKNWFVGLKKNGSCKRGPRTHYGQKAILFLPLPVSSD
Protocol: Based on the crystal diffraction of the FGF-1:2-acetoxy-5-hydroxybenzene sulfonic acid, FGF-1:5-acetoxy-2-hydroxybenzene sulfonic acid and FGF-1:2,5-diacetoxybenzene sulfonic acid complexes, the structures of the complexes were calculated and represented. FIGS. 13, 14 and 15, which show the surface of the dyed protein according to its electrostatic potential (light grey, negative charge; dark grey, positive charge; white, regions with no charge), show the manner in which 2-acetoxy-5-hydroxybenzene sulfonic acid, 5-acetoxy-2-hydroxybenzene sulfonic acid and 2,5-diacetoxybenzene sulfonic acid interact, respectively, with FGF-1.

[4] = tested on: tumor cells of subcutaneous gliomas; assay: Apoptosis in sections of established subcutaneous gliomas (hematoxylin and eosin); assay type: in vivo, rat; settings: 100 mg/kg/day i.p. for 10 days, vs carrier (very scarce)
Excerpt: Tumor cells elude the programmed cell death process or apoptosis that normal cells experience. Apoptosis induction in tumor cells is one way to confront the development of a tumor. To evaluate the effect of potassium 2,5-dihydroxybenzene sulfonate […] on tumor cell apoptosis, 6 μm thick sections of the subcutaneous gliomas described in example 4 were made. The sections were stained with hematoxylin and eosin and observed at a magnification of 313 times using immersion oil. In these conditions, cell apoptosis is shown by the existence of apoptotic bodies appearing as strongly chromogenic granules in the cell nucleus which is frequently fragmented.

[5] = tested on: subcutaneous gliomas from implanted rat glioma C6 cells; assay: Progression of established subcutaneous C6 gliomas in rats; assay type: in vivo; settings: 100 mg/kg/day i.p. for 10 days
Protocol: Rat C6 glioma cells were cultured as previously described (Cuevas P et al. Neurol Res, 2005). The C6 cells cultured to confluence in 75 cm^2 flasks were removed and implanted under the abdominal skin in anesthetized rats. The existence of a tumor in the implantation area was observed five days after the implantation of the tumor cells. Only the rats in which the existence of a tumor was observed were randomly assigned to be treated with daily intraperitoneal injections of 2,5-dihydroxybenzene sulfonate (DHBS; 100 mg/kg/day), 2,5-diacetoxybenzene sulfonate (DABS; 100 mg/kg/day) or the carrier (0.9% NaCl). After 10 days of treatment, the subcutaneous gliomas were removed and their volume was calculated according to the formula V=4/3π·(L/2)·(A/2)^2 (in mm^3) where L is the larger diameter and A is the smaller diameter, both expressed in mm.

[6] = tested on: subcutaneous tumors from human prostate cancer PC-3 cells; assay: Subcutaneous PC-3 prostate cancer cell implantation model in athymic mice; assay type: in vivo, athymic mice (Nu/Nu); settings: 100 mg/kg daily i.p. for 15 days, vs carrier
Protocol: 5×10^6 human prostate cancer PC-3 cells were subcutaneously injected in male athymic mice (Nu/Nu) of 6-8 weeks of age and weighing 20-26 g. Ten days after the implantation of the tumor cells, the mice were randomly split into two groups: one of them received a daily injection of potassium 2,5-diacetoxybenzene sulfonate (DABS) by intraperitoneal route at a dose of 100 mg/kg dissolved in saline (0.9% NaCl) whereas the other group received a daily injection of carrier (saline). The treatments were administered for 15 days. The volumes of the tumors induced by the implantation of PC-3 cells were measured through the skin on alternating days using a Vernier caliper. The volume was calculated using the formula V=(D×2d)/2, where D is the larger diameter in mm, d is the smaller diameter in mm and V is the volume in mm3. At the end of treatment, the mice were sacrificed and the tumors were weighed.

[7] = tested on: human lung cancer A549 cells; assay: Human tumor cell proliferation (XTT), A549; assay type: cell-based; settings: 1-200 μM, 96 h
Protocol: (§2) The cell lines used were the human prostate cancer PC-3 cells and human lung cancer A549 cells. 2000 cells were seeded per well in 96-well plates and they were allowed to adhere overnight. Then the cells were treated or not (controls) with potassium 2,5-diacetoxybenzene sulfonate (DABS) (1-200 μM) and they were allowed to proliferate for 96 h. After this time, the PC-3 and A549 cell proliferation was evaluated by determining the final number of cells by means of the viability method of yellow tetrazolium salt (XTT). The data were expressed as a percentage of the control (without treatment).

[8] = tested on: human prostate cancer PC-3 cells; assay: Human tumor cell proliferation (XTT), PC-3; assay type: cell-based; settings: 1-200 μM, 96 h
Protocol: as §2

## O=C(O)C=Cc1cc(O)ccc1O [2,5-DHC, 3-(2,5-dihydroxyphenyl)-2-propenoic acid]
Rat glioma C6 cells; 50 μM
  C6 cell proliferation relative to control: less than half
Rat glioma C6 cells; 100 μM
  C6 cell proliferation relative to control: one tenth

## O=C([O-])c1cc(O)ccc1O.[K+] [2,5-dihydroxybenzoate, potassium 2,5-dihydroxybenzoate]
Rat glioma C6 cells; 100, 200, 500 and 1000 μM
  C6 cell proliferation (absorbance at 595 nm): inhibited rat glioma C6 cell proliferation in a concentration-dependent manner
Rat glioma C6 cells; 500 and 1000 μM, p<0.001 (FIG. 2)
  statistical significance of inhibition of C6 cell proliferation vs control: statistically significant
[1]
  bFGF-induced fibrosis (fibroblasts in septa of connective tissue of adipose tissue): reduces bFGF-induced fibrosis

## CC(=O)Oc1ccc(O)cc1S(=O)(=O)[O-].[K+] [2A-5HBS, potassium 2-acetoxy-5-hydroxybenzene sulfonate]
[2]
  inhibition of mitogenesis induced by FGF-1: inhibition of mitogenesis induced by FGF-1
Rat glioma C6 cells
  C6 cell proliferation (percentage of control absorbance at 595 nm): caused the inhibition of rat glioma cell proliferation
[3]
  acetoxyl groups retained when bound to FGF-1: conserve the acetoxyl groups
  binding site on FGF-1 in the co-crystal: occupy a site that is very close to the one that has been described occupied by 2,5-dihydroxybenzene sulfonic acid

## CC(=O)Oc1ccc(O)c(S(=O)(=O)[O-])c1.[K+] [5A-2HBS, potassium 5-acetoxy-2-hydroxybenzene sulfonate]
[2]
  inhibition of mitogenesis induced by FGF-1: inhibition of mitogenesis induced by FGF-1
Rat glioma C6 cells
  C6 cell proliferation (percentage of control absorbance at 595 nm): caused the inhibition of rat glioma cell proliferation
[3]
  acetoxyl groups retained when bound to FGF-1: conserve the acetoxyl groups
  binding site on FGF-1 in the co-crystal: occupy a site that is very close to the one that has been described occupied by 2,5-dihydroxybenzene sulfonic acid

## CC(=O)Oc1ccc(OC(C)=O)c(S(=O)(=O)[O-])c1.[K+] [DABS, potassium 2,5-diacetoxybenzene sulfonate]
[4]
  tumor cells in apoptosis in glioma sections: a large number of tumor cells in apoptosis
[2]
  inhibition of mitogenesis induced by FGF-1: inhibition of mitogenesis induced by FGF-1
[5]; all rats had established tumors before treatment
  rats tumor-free when treatment ended: 4 rats
[5]; p<0.05
  probability of being tumor-free (χ2 test), DABS group vs DHBS group: greater probability of being tumor-free
[6]; start 10 days after implantation
  tumor growth (tumor volume through the skin): significantly reduced
[6]; p<0.05
  weight of the extracted tumor when treatment ended: significant reduction of the weight
[7]
  A549 cell proliferation (percentage of control): significant inhibition
[8]
  PC-3 cell proliferation (percentage of control): significant inhibition
[3]
  acetoxyl groups retained when bound to FGF-1: conserve the acetoxyl groups
  binding site on FGF-1 in the co-crystal: occupy a site that is very close to the one that has been described occupied by 2,5-dihydroxybenzene sulfonic acid

## O=S(=O)([O-])c1cc(O)ccc1O.[K+] [DHBS, potassium 2,5-dihydroxybenzene sulfonate, reference compound]
[2]
  inhibition of mitogenesis induced by FGF-1: inhibition of the mitogenesis
[5]; treatment from day 5 after implantation, vs carrier
  average size (volume) of subcutaneous gliomas: less than that of the rats treated with carrier
